Laboratory results published in patent US20250136556A1, “NOVEL MODULATORS OF THE ARYL HYDROCARBON RECEPTOR AND METHODS OF USE THEREOF” (Allianthera (Suzhou) Biopharmaceutical Co., Ltd., priority 2021, published 2025).
Like-named read-outs stand apart in the source and are kept apart here.

What was measured:
[1] = tested on: AHR-regulated gene CYP1A1; assay: AHR-regulated CYP1A1 expression in human monocytic U937 cell line (qPCR); conditions: U937 cells, 16 hours, CYP1A1 relative to GAPDH
Method: To evaluate the AHR agonist activity of the test compounds, quantitative PCR analysis was used to determine expression level of the AHR-regulated gene CYP1A1 in a human monocytic U937 cell line. U937 cells were seeded at a concentration of 5×10^5 cells/well in 200 μL of growth medium in 96-well cell culture microplates. CYP1A1 expression was induced with AHR agonists described in literature as a positive control or the test compounds for 16 hours. […] Unstimulated cells were used as the negative control. Taqman probes for human CYP1A1 (Hs01054797_g1) and human GAPDH (Hs02786624_g1) were used to analyze fold expression of CYP1A1 of GAPDH.

[2] = tested on: Human Nuclear Factor (erythroid-derived2)-like 2 (Nrf2); assay: Nrf2 transcription factor activity reporter assay in human cell line (INDIGO luciferase reporter); format: cell-based; conditions: reporter cells; for EC50: 24 hours incubation; for Nrf2 % activation to Tapinarof at 9 μM: 24 hours, value in brackets
Method: The Nrf2 reporter assay was performed following the protocol of the Human Nuclear Factor (erythroid-derived2)-like 2 (Nrf2) Reporter Assay System (INDIGO Bioscience, #IB10001). Nrf2 Reporter Cell was thawed and pre-incubated in Cell Recovery Medium (CRM) for 6 hours. The media was then removed and the cells were incubated with Compound Screening Medium (CSM) in the absence (negative control) or presence of increasing concentrations of test compounds (typical dilution: 128 pM, 640 pM, 3.2 nM, 16 nM, 80 nM, 400 nM, […] in duplicates) for 24 hours. For positive control, cells activated with CDDO or Nrf2 agonists described in literature. Following 24 hours incubation, the media was removed and Luciferase Detection Reagent (LDR) added. The firefly luciferase activity was quantified using a plate reader. Results were normalized by positive and negative controls.

[3] = tested on: IL-6 gene expression in human primary M1 macrophage cells; assay: AHR-regulated IL-6 inhibition in human primary M1 macrophage (qPCR); format: cell-based; conditions: LPS/IFN-gamma/GM-CSF, 24 hours; for IC50: read-out: M1 assay IL6 -IC50
Method: Human M1 macrophage was differentiated from PBMC. Briefly, at day 1, monocytes were isolated from human PBMC using EasySe Human Monocyte Enrichment Kit without CD16 Depletion (Stemcell, 19058). The isolated monocytes were seeded at 3×10^7 cells in 15 cm dish using 30 ml medium containing 50 ng/ml GM-CSF (R&D, 215-GM-050/CF). At day 5, 30 ml fresh medium containing 50 ng/ml GM-CSF was added. At day 8, 1.5×10^5 cells/well were re-seeded into 24 wells plate, and 500 ul medium containing 10 ng/ml LPS (Sigma, L7770), 20 ng/ml IFN-gamma (PeproTech, 300-02), 50 ng/ml GM-CSF and the test compounds was added. […] The IL-6 expression was inhibited with AHR agonists described in literature as the positive inhibition control, alternatively the un-stimulated cells were used as the negative inhibition control. […] The primers for human GAPDH (F: […]; R: […]) and human IL-6 (F: […]; R: […]) were used to analyze fold expression of IL-6 of GAPDH by quantitative PCR.

[4] = target: T1, Human Aryl Hydrocarbon Receptor (AHR) (Homo sapiens, UniProt P35869); assay: AHR agonist reporter assay in human cell line (INDIGO luciferase reporter); format: cell-based; conditions: reporter cells; for EC50: 24 hours incubation; for AHR % activation to Tapinarof at 1 μM: 24 hours, value in brackets;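 for all read-outs here: firefly luciferase luminescence read on a plate reader, values normalized against positive and negative controls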
T1 construct: purchased INDIGO Bioscience IB06001-32; host or cells: AHR Reporter Cell (proprietary kit cells)
T1 sequence (P35869 11-848): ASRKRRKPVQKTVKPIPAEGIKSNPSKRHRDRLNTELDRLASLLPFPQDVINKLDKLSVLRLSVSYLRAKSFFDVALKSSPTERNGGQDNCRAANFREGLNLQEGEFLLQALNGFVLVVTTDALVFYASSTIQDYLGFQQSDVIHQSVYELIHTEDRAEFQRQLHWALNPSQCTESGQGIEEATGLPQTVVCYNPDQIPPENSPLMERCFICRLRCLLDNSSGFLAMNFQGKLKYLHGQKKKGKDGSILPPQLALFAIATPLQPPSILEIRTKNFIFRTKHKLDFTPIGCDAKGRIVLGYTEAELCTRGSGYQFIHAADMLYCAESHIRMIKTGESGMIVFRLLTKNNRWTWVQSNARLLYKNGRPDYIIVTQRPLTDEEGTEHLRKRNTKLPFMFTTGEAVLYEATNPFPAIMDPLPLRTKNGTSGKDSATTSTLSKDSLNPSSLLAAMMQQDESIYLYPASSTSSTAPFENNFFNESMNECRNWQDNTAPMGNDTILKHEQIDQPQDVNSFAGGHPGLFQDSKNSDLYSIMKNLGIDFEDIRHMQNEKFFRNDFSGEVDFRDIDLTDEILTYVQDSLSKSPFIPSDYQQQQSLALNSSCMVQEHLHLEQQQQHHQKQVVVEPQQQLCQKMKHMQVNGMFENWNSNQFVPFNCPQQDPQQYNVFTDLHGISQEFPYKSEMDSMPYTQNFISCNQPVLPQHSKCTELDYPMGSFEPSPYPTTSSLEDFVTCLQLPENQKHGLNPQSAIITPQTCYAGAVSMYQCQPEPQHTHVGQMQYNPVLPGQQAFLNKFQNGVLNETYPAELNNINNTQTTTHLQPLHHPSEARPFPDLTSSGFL
Method: The AHR reporter assay was performed following the protocol of the Human Aryl Hydrocarbon Receptor (AHR) Reporter Assay System (INDIGO Bioscience, #IB06001-32). AHR Reporter Cell was thawed and pre-incubated in Cell Recovery Medium (CRM) for 6 hours. […] Following 24 hours incubation, the media was removed and Luciferase Detection Reagent (LDR) added. The firefly luciferase activity was quantified using a plate reader. Results were normalized by positive and negative controls.

[5] = first line of cell, read-out: Nrf2 reEC50
[6] = second line of cell, read-out: Nrf2 EC50, second line of cell (head does not name it)
[7] = first line of cell, read-out: AHR reEC50
[8] = second line of cell, read-out: AHR abEC50

CYP1A1 (% activation to Tapinarof at 1 μM) [1] [%]	EC50 [2, 5] [nM]	EC50 [2, 6] [nM]	EC50 [4, 7] [nM]	EC50 [4, 8] [nM]	AHR % activation to Tapinarof at 1 μM [4] [%]	Compound	Nrf2 % activation to Tapinarof at 9 μM [2] [%]	M1 assay IL6 -max % inhibition (% to no treatment) [3] [%]	IC50 [3] [nM]
95.6	34.9	73.7	38100	53.4	104.6	CC(C)c1c(O)cc(-c2nc3ccccc3o2)cc1O [Compound 49]	69.7	90.30	3.14
34.0	70.8	149	166	241	69.5	CC(C)c1ncc(/C=C/c2ccccc2)cc1O [Compound 103, (E)-2-isopropyl-5-styrylpyridine-3-ol]	78.8	84.90	92.6
